Measured values reported in patent US12129221B2, “Difluoro phenyl amide RIP1 inhibitor” (SIRONAX LTD, priority 2018, dated 2024).
Like-named read-outs stand apart in the source and are kept apart here.

Legend:
Human RIP1 kinase = Human RIP1 kinase (Homo sapiens (Human), UniProt Q13546); test: Human RIP1 kinase assay; assay type: biochemical; conditions: given as bound or range
Description: (§1) Representative IC50 of hRIP1 Kinase Assay Correlated with Our IC50 of Cell Necrosis Assay: […]

necrosis = test: Necrosis inhibitory activity (cell necrosis / cell viability assay); assay type: cell-based
Description: Necrosis Inhibitory Activity
as §1

ferroptosis = test: Ferroptosis inhibitor activity; assay type: cell-based; conditions: 1 uM threshold activity extrapolated
Description: Ferroptosis Inhibitor Activity 1 Um Threshold Activity Extrapolated

[1] = Prodrug enhanced metabolic stability: hepatocyte (H); assay type: in vitro ADME; design: key: +, Extrapolated
Description: (§2) Prodrug Enhanced Metabolic Stability: Liver Microsome (L), Hepatocyte (H) and PK

[2] = Prodrug enhanced metabolic stability: liver microsome (L); assay type: in vitro ADME; design: key: +, Extrapolated
Description: as §2

[3] = Prodrug enhanced metabolic stability: PK; assay type: in vivo; design: key: +, Extrapolated
Description: as §2

[4] = Necrosis Inhibitory Activity, given as range, read-out: EC50
[5] = cell necrosis assay, given as bound or range, read-out: Cell viability assay, EC50
[6] = Active Pro-drugs, read-out: EC50

Sequence of Human RIP1 kinase (Q13546 whole entry): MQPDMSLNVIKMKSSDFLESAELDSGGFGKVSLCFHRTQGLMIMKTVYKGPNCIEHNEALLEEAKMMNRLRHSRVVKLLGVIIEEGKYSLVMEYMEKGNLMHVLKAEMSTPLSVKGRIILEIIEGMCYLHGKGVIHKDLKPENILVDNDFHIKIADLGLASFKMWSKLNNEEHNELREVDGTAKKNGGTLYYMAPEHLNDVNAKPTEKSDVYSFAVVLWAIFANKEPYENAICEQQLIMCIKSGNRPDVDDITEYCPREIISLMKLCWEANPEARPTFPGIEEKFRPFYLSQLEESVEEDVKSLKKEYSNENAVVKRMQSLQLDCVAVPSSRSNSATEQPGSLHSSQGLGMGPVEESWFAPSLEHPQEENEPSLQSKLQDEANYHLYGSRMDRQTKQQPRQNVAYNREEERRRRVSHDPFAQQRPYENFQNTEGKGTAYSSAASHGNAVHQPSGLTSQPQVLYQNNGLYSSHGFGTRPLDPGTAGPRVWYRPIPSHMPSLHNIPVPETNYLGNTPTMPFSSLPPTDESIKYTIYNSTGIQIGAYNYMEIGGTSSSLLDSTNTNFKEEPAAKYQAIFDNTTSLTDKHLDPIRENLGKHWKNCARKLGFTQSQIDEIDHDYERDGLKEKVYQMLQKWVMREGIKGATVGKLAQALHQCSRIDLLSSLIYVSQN

Structure (SMILES) | IC50 (Human RIP1 kinase) [nM] | EC50 (necrosis; [4]) [nM] | EC50 (necrosis; [5]) [nM] | EC50 (ferroptosis) [nM] | H [1] | L [2] | PK [3] | EC50 (necrosis; [6]) [nM] | EC50(nM) (necrosis; Active Pro-drugs)
CCC(C)(C)C(=O)N(O)Cc1cnc(C)s1 [Compound 24, N-hydroxy-2,2-dimethyl-N-((2-methylthiazol-5-yl)methyl)butanamide] | 100 to 1000 | 1 to 1000 | 1 to 1000 | 1000 to 10000 |  |  |  |  | 
CC(C)(C(=O)N(O)Cc1ccccc1)C(F)F [Compound 74, N-benzyl-3,3-difluoro-N-hydroxy-2,2-dimethylpropanamide] |  | 1 to 1000 |  | 1000 to 10000 | + | + | + |  | 
CC(C)(CCF)C(=O)N(O)Cc1cc(F)cc(F)c1 [Compound 76, N-(3,5-difluorobenzyl)-4-fluoro-N-hydroxy-2,2-dimethylbutanamide] |  | 1000 to 10000 |  | 1000 to 10000 | + | + | + |  | 
CC(C)(C(=O)N(O)Cc1cc(F)cc(F)c1)C(F)F [Compound 75, N-(3,5-difluorobenzyl)-3,3-difluoro-N-hydroxy-2,2-dimethylpropanamide] |  | 1 to 1000 |  | 1000 to 10000 | + | + | + |  | 
CCC(C)(C)C(=O)N(Cc1ccccc1)OC(=O)c1cccc(C(=O)ON(Cc2ccccc2)C(=O)C(C)(C)CC)c1 [Compound 54, N,N′-(isophthaloylbis(oxy))bis(N-benzyl-2,2-dimethylbutanamide)] |  |  |  |  | + | + | + | 466 | 
CCC(C)(C)C(=O)N(Cc1ccccc1)OP(=O)(N(C)C)N(C)C [Compound 68, N-benzyl-N-((bis(dimethylamino)phosphoryl)oxy)-2,2-dimethylbutanamide] |  |  |  |  | + | + | + | 1620 | 
CCC(C)(C)C(=O)N(Cc1ccccc1)OP(=O)(O)O [Compound 71, ((N-benzyl-2,2-dimethylbutanamido)oxy)phosphonic acid] |  |  |  |  | + | + | + | 28.7 | 
Cc1ccsc1CN(O)C(=O)C(C)(C)C(F)(F)F [Compound 48, 3,3,3-trifluoro-N-hydroxy-2,2-dimethyl-N-((3-methylthiophen-2-yl)methyl)propanamide] | 100 to 1000 | 1000 to 10000 | 1 to 10000 | 1000 to 10000 |  |  |  |  | 
CCC(C)(C)C(=O)N(O)Cc1ccc(Cl)c(F)c1 [Compound 16, N-(4-chloro-3-fluorobenzyl)-N-hydroxy-2,2-dimethylbutanamide] | < 100 | 1 to 1000 | 1 to 1000 | 1000 to 10000 |  |  |  |  | 
[2H]CC([2H])C(C)(C)C(=O)N(Cc1cc(F)cc(F)c1)OC(=O)OCC (centres unmarked) [Compound 61, N-(3,5-difluorobenzyl)-N-((ethoxycarbonyl)oxy)-2,2-dimethylbutanamide-3,4-d2] |  |  |  |  | + | + | + | 128 | 
CCC(C)(C)C(=O)N(Cc1ccccc1)OC(=O)OCC(C)C [Compound 59, N-benzyl-N-((isobutoxycarbonyl)oxy)-2,2-dimethylbutanamide] |  |  |  |  | + | + | + | 44.8 | 
CCC(C)(C)C(=O)N(Cc1ccccc1)OC(=O)[C@@H](N)CO [Compound 83, N-((L-seryl)oxy)-N-benzyl-2,2-dimethylbutanamide] |  |  |  |  | + | + | + | 898 | 
CCC(C)(C)C(=O)N(Cc1ccccc1)OC(=O)[C@@H]1CCCN1C(=O)OC(C)(C)C [Compound 81, tert-butyl (S)-2-(((N-benzyl-2,2-dimethylbutanamido)oxy)carbonyl)pyrrolidine-1-carboxylate] |  |  |  |  | + | + | + | 3250 | 
CCC(C)(C)C(=O)N(Cc1ccccc1)OC(=O)N1CCC(N2CCCCC2)CC1 [Compound 57, N-(([1,4′-bipiperidine]-1′-carbonyl)oxy)-N-benzyl-2,2-dimethylbutanamide] |  |  |  |  | + | + | + |  | weak
O=C(C1CCN(c2ncc(F)cn2)CC1)N(O)Cc1cc(F)cc(F)c1 [Compound 86, N-(3,5-difluorobenzyl)-1-(5-fluoropyrimidin-2-yl)-N-hydroxypiperidine-4-carboxamide] | < 100 | 1 to 1000 | 1 to 1000 | 1000 to 10000 |  |  |  |  | 
CCC(C)(C)C(=O)N(Cc1ccccc1)OCOC(=O)C(C)(C)C [Compound 63, ((N-benzyl-2,2-dimethylbutanamido)oxy)methyl pivalate] |  |  |  |  | + | + | + | 62.9 | 

Structure (SMILES) | IC50 (Human RIP1 kinase) [nM] | EC50 (necrosis; [4]) [nM] | EC50 (necrosis; [5]) [nM] | EC50 (ferroptosis) [nM] | H [1] | L [2] | PK [3] | EC50 (necrosis; [6]) [nM] | EC50(nM) (necrosis; Active Pro-drugs)
CCC(C)(C)C(=O)N(Cc1ccccc1)OC(=O)CC(=O)ON(Cc1ccccc1)C(=O)C(C)(C)CC [Compound 52, N,N′-(malonylbis(oxy))bis(N-benzyl-2,2-dimethylbutanamide)] |  |  |  |  | + | + | + | 42.2 | 
CCC(C)(C)C(=O)N(Cc1ccccc1)OC(=O)CCCC[C@@H]1SC[C@@H]2NC(=O)N[C@@H]21 [Compound 72, N-benzyl-2,2-dimethyl-N-((5-((3aS,4S,6aR)-2-oxohexahydro-1H-thieno[3,4-d]imidazol-4-yl)pentanoyl)oxy)butanamide] |  |  |  |  | + | + | + | 159 | 
[2H]CC([2H])C(C)(C)C(=O)N(Cc1cc(F)cc(F)c1)OC(=O)OCCOCCOC (centres unmarked) [Compound 66, N-(3,5-difluorobenzyl)-N-(((2-(2-methoxyethoxy)ethoxy)carbonyl)oxy)-2,2-dimethylbutanamide-3,4-d2] |  |  |  |  | + | + | + | 46 | 
CCC(C)(C)C(=O)N(Cc1ccccc1)OCc1ccc(O)cc1 [Compound 73, N-benzyl-N-((4-hydroxybenzyl)oxy)-2,2-dimethylbutanamide] |  |  |  |  | + | + | + | 489 | 
O=C(C1CCN(c2ncc(F)cn2)CC1)N(O)Cc1ccccc1 [Compound 84, N-benzyl-1-(5-fluoropyrimidin-2-yl)-N-hydroxypiperidine-4-carboxamide] | < 100 | 1 to 1000 | < 100 | 1000 to 10000 |  |  |  |  | 
[2H]CC([2H])C(C)(C)C(=O)N(Cc1cc(F)cc(F)c1)OC(=O)OCCOCCOCCOC (centres unmarked) [Compound 67, N-((2,5,8,11-tetraoxadodecanoyl)oxy)-N-(3,5-difluorobenzyl)-2,2-dimethylbutanamide-3,4-d2] |  |  |  |  | + | + | + | 58.5 | 
CCOC(=O)ON(Cc1ccccc1)C(=O)C(C)(C)CC [Compound 50, N-benzyl-N-((ethoxycarbonyl)oxy)-2,2-dimethylbutanamide] |  |  |  |  | + | + | + | 69.6 | 
CCC(C)(C)C(=O)N(Cc1ccccc1)OC(=O)C(C)(C)C [Compound 77, N-benzyl-2,2-dimethyl-N-(pivaloyloxy)butanamide] |  |  |  |  | + | + | + | 6830 | 
CCC(C)(C)C(=O)N(O)Cc1ccc2c(c1)CCC2 [Compound 20, N-((2,3-dihydro-1H-inden-5-yl)methyl)-N-hydroxy-2,2-dimethylbutanamide] | < 100 | 1 to 1000 | < 100 | 1000 to 10000 |  |  |  |  | 
CCC(C)(C)C(=O)N(Cc1ccccc1)OC(=O)CN(C)C [Compound 82, N-benzyl-N-((dimethylglycyl)oxy)-2,2-dimethylbutanamide] |  |  |  |  | + | + | + | 116 | 
CCC1(C(=O)N(O)Cc2ccccc2)CC1 [Compound 38, N-benzyl-1-ethyl-N-hydroxycyclopropane-1-carboxamide] | 100 to 1000 | 1000 to 10000 | 1 to 10000 | 1000 to 10000 |  |  |  |  | 
O=C(N(O)Cc1ccccc1)C1(C(F)(F)F)CCC1 [Compound 35, N-benzyl-N-hydroxy-1-(trifluoromethyl)cyclobutane-1-carboxamide] | 100 to 1000 | 1 to 1000 | 1 to 1000 | 1000 to 10000 |  |  |  |  | 
CCC(C)(C)C(=O)N(O)Cc1ccsc1 [Compound 23, N-hydroxy-2,2-dimethyl-N-(thiophen-3-ylmethyl)butanamide] | < 100 | 1 to 1000 | 1 to 1000 | 1000 to 10000 |  |  |  |  | 
[2H]CC([2H])C(C)(C)C(=O)N(Cc1cc(F)cc(F)c1)OCOC(=O)C(C)(C)C (centres unmarked) [Compound 64, ((N-(3,5-difluorobenzyl)-2,2-dimethylbutanamido-3,4-d2)oxy)methyl pivalate] |  |  |  |  | + | + | + | 91.4 | 
CCC(C)(C)C(=O)N(Cc1ccccc1)OCOP(=O)(OCc1ccccc1)OCc1ccccc1 [Compound 69, dibenzyl (((N-benzyl-2,2-dimethylbutanamido)oxy)methyl) phosphate] |  |  |  |  | + | + | + |  | weak
CCC(C)(C)C(=O)N(Cc1ccccc1)OC(=O)[C@@H](N)C(C)C [Compound 80, N-((L-valyl)oxy)-N-benzyl-2,2-dimethylbutanamide] |  |  |  |  | + | + | + | 24.2 | 
